Drawing on patent publication US20250115620A1, “BRIDGED TRICYCLIC CARBAMOYLPYRIDONE COMPOUNDS AND USES THEREOF” (Gilead Sciences, Inc., priority 2022, published 2025), this text covers CC50 and EC50 for 16 compounds.

Read-outs that look alike come from different tables or passages of the source.

One data set is described as follows: in vitro. The following applies: human, uninfected MT-4 cells.
For another data set, the system named is pLAI reporter virus. The data set is described as follows: microbe, parasite or virus in culture. In kind it is cell-based, HIV. Conditions: Human immunodeficiency virus 1, MT4, 72 h.
The test system of another data set is HIV-1 (IIIB). Nature of the data set: microbe, parasite or virus in culture. In kind it is cell-based. Conditions: Human immunodeficiency virus 1, IIIB, MT4, 120 h, read-out: MT4 EC50.
The mark [1] stands for this setting: HIV-1 (IIIB) in MT-4 cells, 5 days incubation, Cell Titer Glo.

As usually defined, the CC50 is the concentration at which the toxic effect on the cells reaches its halfway point. Low readings indicate greater toxicity to the cells, high ones lower toxicity to the cells. The term EC50 denotes the concentration needed to bring the measured effect to its halfway point.

On to `CC1=NO[C@@]2(CC[C@H](C)N3C[C@H]2n2cc(C(=O)NCc4ccc(F)cc4F)c(=O)c(O)c2C3=O)[C@@H]1O` [Example 30, (3′S,4R,5R,7′R)—N-(2,4-difluorobenzyl)-4,12′-dihydroxy-3,3′-dimethyl-1′,11′-dioxo-1′,4′,5′,11′-tetrahydro-3′H,4H,7′H-spiro[isoxazole-5,6′-[2,7]methanopyrido[1,2-a][1,4]diazonine]-10′-carboxamide], for which the 50% cytotoxic concentration (CC50) at 5 days in “in vitro” was determined as 40000 nM. In addition, the EC50 came out at 79.4 nM with pLAI reporter virus (read-out: RLUC 50% HS EC50), 0.5 nM in the data set with pLAI reporter virus (read-out: RLUC CCM EC50) and 1.2 nM in the data set on HIV-1 (IIIB) (setting [1]).
In the same order, the values of `C[C@H]1CC[C@]2(CC(=O)N(Cc3nc4ccccc4[nH]3)O2)[C@H]2CN1C(=O)c1c(O)c(=O)c(C(=O)NCc3c(F)cc(F)cc3F)cn12` [Example 162, (3′S,5S,7′R)-2-((1H-benzo[d]imidazol-2-yl)methyl)-12′-hydroxy-3′-methyl-1′,3,11′-trioxo-N-(2,4,6-trifluorobenzyl)-1′,4′,5′,11′-tetrahydro-3′H,7′H-spiro[isoxazolidine-5,6′-[2,7]methanopyrido[1,2-a][1,4]diazonine]-10′-carboxamide] are no less than 50000 nM, 5.7 nM, 1.4 nM and 3.6 nM.
Consider `C[C@H]1CC[C@]2(CC(OCC(F)(F)F)=NO2)[C@H]2CN1C(=O)c1c(O)c(=O)c(C(=O)NCc3ccc(F)cc3F)cn12` [Example 46, (3′S,5S,7′R)—N-(2,4-difluorobenzyl)-12′-hydroxy-3′-methyl-1′,11′-dioxo-3-(2,2,2-trifluoroethoxy)-1′,4′,5′,11′-tetrahydro-3′H,4H,7′H-spiro[isoxazole-5,6′-[2,7]methanopyrido[1,2-a][1,4]diazonine]-10′-carboxamide], for which, in “in vitro”, the CC50 at 5 days turned out to be 7720 nM. Moreover, the results for the EC50 with pLAI reporter virus (read-out: RLUC 50% HS EC50), in the data set with pLAI reporter virus (read-out: RLUC CCM EC50) and in the data set with HIV-1 (IIIB) (setting [1]) were 2.3 nM, 0.1 nM and 1.7 nM, respectively.
`CC1=NO[C@@]2(CC[C@H](C)N3C[C@H]2n2cc(C(=O)NCc4ccc(F)c(Cl)c4F)c(=O)c(O)c2C3=O)C1` [Example 6, (3′S,5S,7′R)—N-(3-chloro-2,4-difluorobenzyl)-12′-hydroxy-3,3′-dimethyl-1′,11′-dioxo-1′,4′,5′,11′-tetrahydro-3′H,4H,7′H-spiro[isoxazole-5,6′-[2,7]methanopyrido[1,2-a][1,4]diazonine]-10′-carboxamide] showed a CC50 at 5 days in the data set “in vitro” of 9280 nM. Besides, the EC50 was determined as 543 nM with pLAI reporter virus (read-out: RLUC 50% HS EC50), 0.2 nM in the data set on pLAI reporter virus (read-out: RLUC CCM EC50) and 0.5 nM with HIV-1 (IIIB) (setting [1]).
`CCCC1=NO[C@@]2(CC[C@H](C)N3C[C@H]2n2cc(C(=O)NCc4c(F)cc(F)cc4F)c(=O)c(O)c2C3=O)C1` [Example 68, (3′S,5S,7′R)-12′-hydroxy-3′-methyl-1′,11′-dioxo-3-propyl-N-(2,4,6-trifluorobenzyl)-1′,4′,5′,11′-tetrahydro-3′H,4H,7′H-spiro[isoxazole-5,6′-[2,7]methanopyrido[1,2-a][1,4]diazonine]-10′-carboxamide]: in the data set “in vitro”, the CC50 at 5 days stood at 15700 nM. In addition, the EC50 is 85.4 nM with pLAI reporter virus (read-out: RLUC 50% HS EC50), 0.3 nM with pLAI reporter virus (read-out: RLUC CCM EC50) and 1.2 nM in the data set with HIV-1 (IIIB) (setting [1]).
In the same order, the values of `COC[C@@H]1CO[C@@]2(CC[C@H](C)N3C[C@H]2n2cc(C(=O)NCc4c(F)cc(F)cc4F)c(=O)c(O)c2C3=O)O1` (single isomer, unassigned) [168 (peak 1)] are 28900 nM, 2 nM, 0.4 nM and 1.1 nM.
In “in vitro”, `COC1=NO[C@]2(CC[C@H](C)N3C[C@H]2n2cc(C(=O)NCc4c(F)cc(F)cc4F)c(=O)c(O)c2C3=O)C1` [Example 37, (3′S,5R,7′R)-12′-hydroxy-3-methoxy-3′-methyl-1′,11′-dioxo-N-(2,4,6-trifluorobenzyl)-1′,4′,5′,11′-tetrahydro-3′H,4H,7′H-spiro[isoxazole-5,6′-[2,7]methanopyrido[1,2-a][1,4]diazonine]-10′-carboxamide] had a CC50 at 5 days of 49900 nM. Further, the figures for the half-maximal effective concentration (EC50) in the data set with pLAI reporter virus (read-out: RLUC 50% HS EC50), in the data set on pLAI reporter virus (read-out: RLUC CCM EC50) and in the data set on HIV-1 (IIIB) (setting [1]) were 8.3 nM, 0.7 nM and 1.6 nM, respectively.
In turn, `CC1=NO[C@]2(CC[C@H](C)N3C[C@H]2n2cc(C(=O)NCc4ccc(F)cc4F)c(=O)c(O)c2C3=O)C1=O` [Example 25, (3′S,5S,7′R)—N-(2,4-difluorobenzyl)-12′-hydroxy-3,3′-dimethyl-1′,4,11′-trioxo-1′,4′,5′,11′-tetrahydro-3′H,4H,7′H-spiro[isoxazole-5,6′-[2,7]methanopyrido[1,2-a][1,4]diazonine]-10′-carboxamide] registered a CC50 at 5 days in the data set “in vitro” of no less than 50000 nM. The concentration for a half-maximal effect (EC50) in the data set with pLAI reporter virus (read-out: RLUC 50% HS EC50) is 58.1 nM; in the data set with pLAI reporter virus (read-out: RLUC CCM EC50), 34 nM; in the data set with HIV-1 (IIIB) (setting [1]), no less than 100 nM.
In the same order, the values of `COC1=NO[C@@]2(CC[C@H](CF)N3C[C@H]2n2cc(C(=O)NCc4c(F)cc(F)cc4F)c(=O)c(O)c2C3=O)C1` [Example 99, (3′R,5S,7′R)-3′-(fluoromethyl)-12′-hydroxy-3-methoxy-1′,11′-dioxo-N-(2,4,6-trifluorobenzyl)-1′,4′,5′,11′-tetrahydro-3′H,4H,7′H-spiro[isoxazole-5,6′-[2,7]methanopyrido[1,2-a][1,4]diazonine]-10′-carboxamide] are 36500 nM, 19.7 nM, 0.2 nM and 1.5 nM.
For `COC1=NO[C@@]2(CC[C@@H](C)N3C[C@H]2n2cc(C(=O)NCc4c(F)cc(F)cc4F)c(=O)c(O)c2C3=O)C1` [Example 97, (3′R,5S,7′R)-12′-hydroxy-3-methoxy-3′-methyl-1′,11′-dioxo-N-(2,4,6-trifluorobenzyl)-1′,4′,5′,11′-tetrahydro-3′H,4H,7′H-spiro[isoxazole-5,6′-[2,7]methanopyrido[1,2-a][1,4]diazonine]-10′-carboxamide], the CC50 at 5 days in the data set “in vitro” turned out to be 10400 nM. The EC50 was 1.8 nM with pLAI reporter virus (read-out: RLUC 50% HS EC50), 0.5 nM in the data set on pLAI reporter virus (read-out: RLUC CCM EC50) and 2.5 nM in the data set with HIV-1 (IIIB) (setting [1]).
Turning to `C[C@H]1CC[C@@]2(COC(C)(C)O2)[C@H]2CN1C(=O)c1c(O)c(=O)c(C(=O)NCc3c(F)cc(F)cc3F)cn12` [Example 138, (3′S,4S,7′R)-12′-hydroxy-2,2,3′-trimethyl-1′,11′-dioxo-N-(2,4,6-trifluorobenzyl)-1′,4′,5′,11′-tetrahydro-3′H,7′H-spiro[[1,3]dioxolane-4,6′-[2,7]methanopyrido[1,2-a][1,4]diazonine]-10′-carboxamide], in the data set “in vitro”, the CC50 at 5 days is 23200 nM. Also, the concentration for a half-maximal effect (EC50) in the data set with pLAI reporter virus (read-out: RLUC 50% HS EC50) amounted to 13.1 nM; in the data set on pLAI reporter virus (read-out: RLUC CCM EC50) it was 0.5 nM; with HIV-1 (IIIB) (setting [1]) it was 2 nM.
In “in vitro”, `C[C@H]1CC[C@@]2(ON=C(CF)[C@@H]2O)[C@H]2CN1C(=O)c1c(O)c(=O)c(C(=O)NCc3c(F)cc(F)cc3F)cn12` [Example 88, (3′S,4S,5R,7′R)-3-(fluoromethyl)-4,12′-dihydroxy-3′-methyl-1′,11′-dioxo-N-(2,4,6-trifluorobenzyl)-1′,4′,5′,11′-tetrahydro-3′H,4H,7′H-spiro[isoxazole-5,6′-[2,7]methanopyrido[1,2-a][1,4]diazonine]-10′-carboxamide] registered a half-maximal cytotoxic concentration (CC50) at 5 days of no less than 50000 nM. The figures for the EC50 in the data set on pLAI reporter virus (read-out: RLUC 50% HS EC50), with pLAI reporter virus (read-out: RLUC CCM EC50) and with HIV-1 (IIIB) (setting [1]) were 280 nM, 0.3 nM and 2.6 nM, respectively.
Take `C[C@H]1CC[C@]2(CC(=O)NO2)[C@H]2CN1C(=O)c1c(O)c(=O)c(C(=O)NCc3ccc(F)cc3F)cn12` [Example 156, (3′S,5S,7′R)—N-(2,4-difluorobenzyl)-12′-hydroxy-3′-methyl-1′,3,11′-trioxo-1′,4′,5′,11′-tetrahydro-3′H,7′H-spiro[isoxazolidine-5,6′-[2,7]methanopyrido[1,2-a][1,4]diazonine]-10′-carboxamide]: the half-maximal cytotoxic concentration (CC50) at 5 days in the data set “in vitro” is no less than 50000 nM. For the same compound, the values for the half-maximal effective concentration (EC50) with pLAI reporter virus (read-out: RLUC 50% HS EC50), in the data set on pLAI reporter virus (read-out: RLUC CCM EC50) and with HIV-1 (IIIB) (setting [1]) were 79.8 nM, 25 nM and 18.1 nM, respectively.
In turn, `C[C@H]1CC[C@]2(CO[C@H](Cc3ccccc3)O2)[C@H]2CN1C(=O)c1c(O)c(=O)c(C(=O)NCc3c(F)cc(F)cc3F)cn12` [Example 134, (2S,3′S,4R,7′R)-2-benzyl-12′-hydroxy-3′-methyl-1′,11′-dioxo-N-(2,4,6-trifluorobenzyl)-1′,4′,5′,11′-tetrahydro-3′H,7′H-spiro[[1,3]dioxolane-4,6′-[2,7]methanopyrido[1,2-a][1,4]diazonine]-10′-carboxamide] displayed a CC50 at 5 days in “in vitro” of 8500 nM. The figures for the EC50 in the data set with pLAI reporter virus (read-out: RLUC 50% HS EC50), in the data set with pLAI reporter virus (read-out: RLUC CCM EC50) and with HIV-1 (IIIB) were 6.3 nM, 1.9 nM and 4.8 nM, respectively.
In turn, `C[C@H]1CC[C@@]2(CC(C#CC(C)(C)S(C)(=O)=O)=NO2)[C@H]2CN1C(=O)c1c(O)c(=O)c(C(=O)NCc3c(F)cc(F)cc3F)cn12` [Example 80, (3′S,5R,7′R)-12′-hydroxy-3′-methyl-3-(3-methyl-3-(methylsulfonyl)but-1-yn-1-yl)-1′,11′-dioxo-N-(2,4,6-trifluorobenzyl)-1′,4′,5′,11′-tetrahydro-3′H,4H,7′H-spiro[isoxazole-5,6′-[2,7]methanopyrido[1,2-a][1,4]diazonine]-10′-carboxamide] returned a 50% cytotoxic concentration (CC50) at 5 days in “in vitro” of no less than 50000 nM. In addition, the EC50 in the data set on pLAI reporter virus (read-out: RLUC 50% HS EC50) came to 30.1 nM; in the data set on pLAI reporter virus (read-out: RLUC CCM EC50), 15.7 nM; in the data set with HIV-1 (IIIB) (setting [1]), 81.5 nM.
Consider `C[C@H]1CC[C@]2(CC=NO2)[C@H]2CN1C(=O)c1c(O)c(=O)c(C(=O)NCc3c(F)cc(F)cc3F)cn12` [Example 72, (3′S,5S,7′R)-12′-hydroxy-3′-methyl-1′,11′-dioxo-N-(2,4,6-trifluorobenzyl)-1′,4′,5′,11′-tetrahydro-3′H,4H,7′H-spiro[isoxazole-5,6′-[2,7]methanopyrido[1,2-a][1,4]diazonine]-10′-carboxamide], for which it took 31900 nM to reach half-maximal cytotoxicity in “in vitro” (CC50 at 5 days). Moreover, the EC50 in the data set with pLAI reporter virus (read-out: RLUC 50% HS EC50) was found to be 108 nM; in the data set with pLAI reporter virus (read-out: RLUC CCM EC50), 0.3 nM; in the data set on HIV-1 (IIIB) (setting [1]) it was 1.2 nM.
